# Assay results from PMC6270288, “Yellow Pigments, Fomitellanols A and B, and Drimane Sesquiterpenoids, Cryptoporic Acids P and Q, from Fomitella fraxinea and Their Inhibitory Activity against COX and 5-LO” (Molecules, 2013).
# pIC50: −log10 of the molar value.
# Columns and labels:
# [1] = biological target: T1, COX-1 (Ovis aries, UniProt P05979); test: COX-1-catalyzed prostaglandin biosynthesis assay in vitro; type: biochemical, ram; details: for inhibition at 10 µg/mL: 10 μg/mL, COX-1 from ram seminal vesicles; for pIC50: triplicate five-point titration
# T1 construct: isolated from ram seminal vesicles; purchased Cayman Chemical Company; host or cells: ram seminal vesicles (tissue isolate)
# T1 sequence (P05979 25-600): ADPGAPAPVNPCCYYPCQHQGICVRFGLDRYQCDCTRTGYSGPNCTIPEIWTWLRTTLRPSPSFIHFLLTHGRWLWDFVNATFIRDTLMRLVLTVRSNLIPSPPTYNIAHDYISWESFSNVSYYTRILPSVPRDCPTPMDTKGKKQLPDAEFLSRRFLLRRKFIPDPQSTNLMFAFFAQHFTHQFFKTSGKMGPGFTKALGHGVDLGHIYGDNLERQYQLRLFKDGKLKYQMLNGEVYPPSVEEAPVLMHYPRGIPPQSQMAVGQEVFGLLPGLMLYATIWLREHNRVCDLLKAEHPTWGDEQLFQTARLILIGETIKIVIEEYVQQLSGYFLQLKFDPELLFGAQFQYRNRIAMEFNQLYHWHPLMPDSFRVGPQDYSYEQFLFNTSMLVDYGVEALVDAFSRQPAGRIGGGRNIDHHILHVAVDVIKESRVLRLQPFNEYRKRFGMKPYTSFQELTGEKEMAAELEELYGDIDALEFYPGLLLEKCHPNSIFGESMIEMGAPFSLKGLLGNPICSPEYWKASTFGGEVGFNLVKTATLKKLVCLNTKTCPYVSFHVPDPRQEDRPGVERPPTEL
# Procedure: (§1) Experiments were performed according to Futaki et al. with modification. In brief, 200 U of COX-1 or COX-2 enzyme was suspended in 0.1 M Tris-HCl buffer (PH 7.5) containing hematin (1 μM) and phenol (2 mM), as co-factors. The reaction medium was preincubated with sample for 2 min at 37 °C, and 51.4 μM of […] arachidonic acid (Sigma, St. Louis, MO, USA) was added and incubated for 2 min at 37 °C. To terminate the reaction and extract PGE2, 400 μL of n-hexane/EtOAc (2:1, V/V) was added to the reaction mixture and the preparation was centrifuged at 2,000 rpm for 1 min. The organic solvent phase was discarded. The extraction procedure was repeated twice, then 50 μL EtOH was added to the aqueous phase, and the preparation was at 2,000 rpm for 1 min. The amount of PGE2 was measured by radioimmunoassay using a liquid scintillation counter. COX-1 (EC1.14.99.1, isolated from ram seminal vesicles; Cayman Chemical Company, Ann Arbor, MI, USA) and COX-2 (isolated from sheep placenta, purity 70%; Cayman Chemical Company) were used.
# [2] = biological target: T2, COX-2 (Ovis aries, UniProt P79208); test: COX-2-catalyzed prostaglandin biosynthesis assay in vitro; type: biochemical, sheep; details: for inhibition at 10 µg/mL: 10 μg/mL, COX-2 from sheep placenta
# T2 construct: isolated from sheep placenta, purity 70%; purchased Cayman Chemical Company; host or cells: sheep placenta (tissue isolate)
# T2 sequence (P79208 17-603): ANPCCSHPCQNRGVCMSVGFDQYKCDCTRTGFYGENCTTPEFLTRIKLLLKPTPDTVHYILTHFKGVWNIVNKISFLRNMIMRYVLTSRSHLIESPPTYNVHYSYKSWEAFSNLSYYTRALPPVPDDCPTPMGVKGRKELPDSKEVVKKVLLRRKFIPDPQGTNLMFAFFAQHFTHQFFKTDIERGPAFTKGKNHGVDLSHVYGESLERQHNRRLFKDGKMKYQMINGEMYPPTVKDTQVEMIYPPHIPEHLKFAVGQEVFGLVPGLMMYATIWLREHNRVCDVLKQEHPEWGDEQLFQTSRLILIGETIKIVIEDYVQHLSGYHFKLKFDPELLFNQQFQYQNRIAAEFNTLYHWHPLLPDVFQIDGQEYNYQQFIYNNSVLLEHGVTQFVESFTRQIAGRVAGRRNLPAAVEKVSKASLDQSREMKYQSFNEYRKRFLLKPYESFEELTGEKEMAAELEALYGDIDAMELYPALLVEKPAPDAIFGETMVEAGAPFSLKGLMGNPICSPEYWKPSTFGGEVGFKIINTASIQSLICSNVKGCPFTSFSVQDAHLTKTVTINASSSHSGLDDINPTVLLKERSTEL
# Procedure: as §1
# [3] = biological target: T3, 5-LO (Rattus norvegicus, UniProt P12527); test: Measurement of RBL-1 5-lipoxygenase activity; type: biochemical; details: RBL-1 cell homogenate; for inhibition at 10 µg/mL: 10 μg/mL; for pIC50: triplicate five-point titration
# T3 construct: RBL-1 cell homogenate (1.5 × 10^7 cells); endogenous in cells; host or cells: RBL-1 (rat basophilic leukemia-1) cell homogenate
# T3 sequence (P12527 1-673): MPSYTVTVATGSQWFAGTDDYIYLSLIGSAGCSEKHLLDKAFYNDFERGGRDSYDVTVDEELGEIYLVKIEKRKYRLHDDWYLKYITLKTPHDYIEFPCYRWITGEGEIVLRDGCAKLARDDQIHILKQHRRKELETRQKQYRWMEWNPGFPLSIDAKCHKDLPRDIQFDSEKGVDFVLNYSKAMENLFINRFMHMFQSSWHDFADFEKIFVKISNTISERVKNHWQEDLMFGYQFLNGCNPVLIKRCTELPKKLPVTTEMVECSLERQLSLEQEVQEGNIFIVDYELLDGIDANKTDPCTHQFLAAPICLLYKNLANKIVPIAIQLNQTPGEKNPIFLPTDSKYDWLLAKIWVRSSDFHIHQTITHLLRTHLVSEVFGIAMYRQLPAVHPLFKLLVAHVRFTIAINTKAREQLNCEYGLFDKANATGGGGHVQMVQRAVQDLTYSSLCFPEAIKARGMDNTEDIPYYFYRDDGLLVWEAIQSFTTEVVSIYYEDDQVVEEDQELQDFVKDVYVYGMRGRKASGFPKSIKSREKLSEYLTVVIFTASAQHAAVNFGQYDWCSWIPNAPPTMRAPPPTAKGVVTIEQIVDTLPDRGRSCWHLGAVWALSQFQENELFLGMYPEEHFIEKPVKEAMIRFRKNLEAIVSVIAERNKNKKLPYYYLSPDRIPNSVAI
# Procedure: The modified method of Blackman et al. was used. Rat basophilic leukemia-1 (RBL-1) cells were grown in RPMI-1640 medium containing 10% heat-inactivated newborn calf serum (NCS), penicillin 100 units/mL, and streptomycin […]. Cells were cultured at 37 °C in 5% CO2. The assay system (0.5 mL) consisted of 50 mM phosphate buffer (pH 7.4), the test compound, 2 mM CaCl2, 0.66 mM arachidonic acid, and RBL-1 cell homogenate (1.5 × 10^7 cells). Reaction mixtures were incubated at 37 °C for 3 min, and then MeOH (0.5 mL) was added to terminate the reaction. The mixture was centrifuged to remove the precipitated proteins, 5-HETE in the supernatant was analyzed by HPLC. The mixture was eluted through a Cosmosil 5C18 column (4.6 × 150 mm) at room temperature with 85% CH3CN at 235 nm.
SMILES,inhibition at 10 µg/mL [1],inhibition at 10 µg/mL [2],inhibition at 10 µg/mL [3],pIC50 [1],pIC50 [3],inhibitory activities against COX-2 (in words) [2]
"C=C1CC[C@H]2[C@](C)(COC(C)=O)CCC[C@]2(C)[C@H]1CO[C@@H](C(=O)O)[C@H](CC(=O)O)C(=O)OC [Compound 3, Cryptoporic acid P]",40.2%,1.7%,14.9%,–,–,–
"CC(C)O[C@H]1Oc2ccc(O)c3c2[C@@]1(C)[C@H]1C(=O)C=C(CO)C1=C3 [Compound 1a, 5-hydroxy-7-hydroxymethyl-1-isopropoxy-9b-methyl-9a,9b-dihydro-H-2-oxa-cyclopenta[d]acenaphthylen-9-one]",90.5%,7.5%,84.7%,4.32,4.82,–
C[C@]12c3c(ccc(O)c3C=C3C(CO)=CC(=O)[C@@H]31)O[C@@H]2O [Compound 1],–,–,–,–,4.82,not apparent
"C=C1CC[C@H]2[C@](C)(CO)CCC[C@]2(C)[C@H]1CO[C@@H](C(=O)O)[C@H](CC(=O)O)C(=O)OC [Compound 6, cryptoporic acid N]",35.8%,19%,28.9%,–,–,–
"C=C1CC[C@H]2[C@](C)(COC(C)=O)CCC[C@]2(C)[C@H]1CO[C@@H](C(=O)OC)[C@H](CC(=O)O)C(=O)OC [Compound 4, Cryptoporic acid Q]",66.5%,10.3%,50.1%,4.10,3.69,–
